Test results taken from the NIST ThermoML archive (doi:10.1021/je101130e).
Numbers after ± are expanded uncertainties.

Tests used:
[1] = cn = amount concentration of the nth substance listed, in mol/dm3; details: 101 kPa, Liquid, Alternating current cell with electrodes
[2] = mn = molality of the nth substance listed, in mol/kg; details: 298.15 K, 101 kPa, Liquid, Vibrating tube method

CCOS(=O)(=O)[O-].CCn1cc[n+](C)c1 [1-ethyl-3-methylimidazolium ethyl sulfate] + CC#N
molar conductivity [S·m2/mol], [1]
Details | 273.15 K | 278.15 K | 283.15 K | 288.15 K | 293.15 K | 298.15 K | 303.15 K | 308.15 K | 313.15 K
c1 = 0.3706 | 0.01282 ± 1.3e-05 | 0.01356 ± 1.4e-05 | 0.014309 ± 1.4e-05 | 0.015072 ± 1.5e-05 | 0.01584 ± 1.6e-05 | 0.01663 ± 1.7e-05 | 0.017423 ± 1.7e-05 | 0.018226 ± 1.8e-05 | 0.019045 ± 1.9e-05
c1 = 0.7493 | 0.01255 ± 1.3e-05 | 0.01327 ± 1.3e-05 | 0.014004 ± 1.4e-05 | 0.01475 ± 1.5e-05 | 0.0155 ± 1.6e-05 | 0.016262 ± 1.6e-05 | 0.01704 ± 1.7e-05 | 0.01782 ± 1.8e-05 | 0.01862 ± 1.9e-05
c1 = 1.176 | 0.012313 ± 1.2e-05 | 0.013021 ± 1.3e-05 | 0.01374 ± 1.4e-05 | 0.01447 ± 1.5e-05 | 0.015211 ± 1.5e-05 | 0.01596 ± 1.6e-05 | 0.01672 ± 1.7e-05 | 0.017492 ± 1.7e-05 | 0.018273 ± 1.8e-05
c1 = 1.698 | 0.012085 ± 1.2e-05 | 0.01278 ± 1.3e-05 | 0.013489 ± 1.3e-05 | 0.014207 ± 1.4e-05 | 0.01493 ± 1.5e-05 | 0.01567 ± 1.6e-05 | 0.016414 ± 1.6e-05 | 0.017171 ± 1.7e-05 | 0.01794 ± 1.8e-05
c1 = 2.185 | 0.01189 ± 1.2e-05 | 0.01258 ± 1.3e-05 | 0.013276 ± 1.3e-05 | 0.01398 ± 1.4e-05 | 0.0147 ± 1.5e-05 | 0.01542 ± 1.5e-05 | 0.016154 ± 1.6e-05 | 0.0169 ± 1.7e-05 | 0.01765 ± 1.8e-05
c1 = 2.695 | 0.01172 ± 1.2e-05 | 0.012392 ± 1.2e-05 | 0.013078 ± 1.3e-05 | 0.01377 ± 1.4e-05 | 0.01448 ± 1.5e-05 | 0.01519 ± 1.5e-05 | 0.01591 ± 1.6e-05 | 0.01664 ± 1.7e-05 | 0.017386 ± 1.7e-05
c1 = 3.269 | 0.01154 ± 1.2e-05 | 0.012206 ± 1.2e-05 | 0.01288 ± 1.3e-05 | 0.01357 ± 1.4e-05 | 0.014261 ± 1.4e-05 | 0.01496 ± 1.5e-05 | 0.01567 ± 1.6e-05 | 0.016396 ± 1.6e-05 | 0.017125 ± 1.7e-05
c1 = 3.882 | 0.011371 ± 1.1e-05 | 0.012029 ± 1.2e-05 | 0.0127 ± 1.3e-05 | 0.01337 ± 1.3e-05 | 0.014054 ± 1.4e-05 | 0.01475 ± 1.5e-05 | 0.015446 ± 1.5e-05 | 0.016155 ± 1.6e-05 | 0.01687 ± 1.7e-05
c1 = 4.671 | 0.01117 ± 1.1e-05 | 0.01182 ± 1.2e-05 | 0.01247 ± 1.3e-05 | 0.013136 ± 1.3e-05 | 0.01381 ± 1.4e-05 | 0.01449 ± 1.5e-05 | 0.015177 ± 1.5e-05 | 0.01588 ± 1.6e-05 | 0.01658 ± 1.7e-05
c1 = 5.374 | 0.011016 ± 1.1e-05 | 0.01165 ± 1.2e-05 | 0.0123 ± 1.2e-05 | 0.01295 ± 1.3e-05 | 0.01362 ± 1.4e-05 | 0.014287 ± 1.4e-05 | 0.01497 ± 1.5e-05 | 0.01566 ± 1.6e-05 | 0.01635 ± 1.6e-05
c1 = 5.987 | 0.01089 ± 1.1e-05 | 0.01152 ± 1.2e-05 | 0.012165 ± 1.2e-05 | 0.01281 ± 1.3e-05 | 0.01347 ± 1.3e-05 | 0.014134 ± 1.4e-05 | 0.0148 ± 1.5e-05 | 0.01549 ± 1.6e-05 | 0.016173 ± 1.6e-05
c1 = 6.546 | 0.01079 ± 1.1e-05 | 0.011417 ± 1.1e-05 | 0.012051 ± 1.2e-05 | 0.01269 ± 1.3e-05 | 0.013343 ± 1.3e-05 | 0.014 ± 1.4e-05 | 0.01467 ± 1.5e-05 | 0.015338 ± 1.5e-05 | 0.016021 ± 1.6e-05

[2]
Details | mass density [kg/m3]
m1 = 0.006546 | 777.183 ± 10
m1 = 0.1445 | 788.755 ± 10
